One data set relates to MCF7. As to the kind of experiment: Cytotoxicity against human MCF-7 cells assessed as cell viability incubated for 96 hrs by MTT assay. The data set is classed as functional, cell-based. As to conditions: MCF7, 96 h.
The next data set concerns Calu-3. The data set is described as follows: Cytotoxicity against human CALU-3 cells assessed as cell viability incubated for 96 hrs by MTT assay. The data set is classed as functional, cell-based. As to conditions: Calu-3, 96 h. (In general: Tetrazolium assays rely on reduction of a dye to a coloured formazan, in cell work by metabolically active cells.)
In data set [1] the test system is SCC-25. The data set is described as follows: Cytotoxicity against human SCC-25 cells assessed as cell viability incubated for 96 hrs by MTT assay. It is filed as functional, cell-based. Particulars: SCC-25, 96 h.
Data set [2] in a line: Cytotoxicity against human Oral epithelial cell assessed as cell viability incubated for 96 hrs by MTT assay. As to conditions: for IC50: oral epithelial cell; for IC50 at 96 h: human, oral epithelial cells.
The target in data set [3] is DNA topoisomerase 2-alpha (Homo sapiens) (UniProt P11388). As to the kind of experiment: Inhibition of human topoisomerase II alpha using kinetoplast DNA as substrate at 10 microM incubated for 30 mins.
Chain of DNA topoisomerase 2-alpha (Homo sapiens) (P11388 whole entry): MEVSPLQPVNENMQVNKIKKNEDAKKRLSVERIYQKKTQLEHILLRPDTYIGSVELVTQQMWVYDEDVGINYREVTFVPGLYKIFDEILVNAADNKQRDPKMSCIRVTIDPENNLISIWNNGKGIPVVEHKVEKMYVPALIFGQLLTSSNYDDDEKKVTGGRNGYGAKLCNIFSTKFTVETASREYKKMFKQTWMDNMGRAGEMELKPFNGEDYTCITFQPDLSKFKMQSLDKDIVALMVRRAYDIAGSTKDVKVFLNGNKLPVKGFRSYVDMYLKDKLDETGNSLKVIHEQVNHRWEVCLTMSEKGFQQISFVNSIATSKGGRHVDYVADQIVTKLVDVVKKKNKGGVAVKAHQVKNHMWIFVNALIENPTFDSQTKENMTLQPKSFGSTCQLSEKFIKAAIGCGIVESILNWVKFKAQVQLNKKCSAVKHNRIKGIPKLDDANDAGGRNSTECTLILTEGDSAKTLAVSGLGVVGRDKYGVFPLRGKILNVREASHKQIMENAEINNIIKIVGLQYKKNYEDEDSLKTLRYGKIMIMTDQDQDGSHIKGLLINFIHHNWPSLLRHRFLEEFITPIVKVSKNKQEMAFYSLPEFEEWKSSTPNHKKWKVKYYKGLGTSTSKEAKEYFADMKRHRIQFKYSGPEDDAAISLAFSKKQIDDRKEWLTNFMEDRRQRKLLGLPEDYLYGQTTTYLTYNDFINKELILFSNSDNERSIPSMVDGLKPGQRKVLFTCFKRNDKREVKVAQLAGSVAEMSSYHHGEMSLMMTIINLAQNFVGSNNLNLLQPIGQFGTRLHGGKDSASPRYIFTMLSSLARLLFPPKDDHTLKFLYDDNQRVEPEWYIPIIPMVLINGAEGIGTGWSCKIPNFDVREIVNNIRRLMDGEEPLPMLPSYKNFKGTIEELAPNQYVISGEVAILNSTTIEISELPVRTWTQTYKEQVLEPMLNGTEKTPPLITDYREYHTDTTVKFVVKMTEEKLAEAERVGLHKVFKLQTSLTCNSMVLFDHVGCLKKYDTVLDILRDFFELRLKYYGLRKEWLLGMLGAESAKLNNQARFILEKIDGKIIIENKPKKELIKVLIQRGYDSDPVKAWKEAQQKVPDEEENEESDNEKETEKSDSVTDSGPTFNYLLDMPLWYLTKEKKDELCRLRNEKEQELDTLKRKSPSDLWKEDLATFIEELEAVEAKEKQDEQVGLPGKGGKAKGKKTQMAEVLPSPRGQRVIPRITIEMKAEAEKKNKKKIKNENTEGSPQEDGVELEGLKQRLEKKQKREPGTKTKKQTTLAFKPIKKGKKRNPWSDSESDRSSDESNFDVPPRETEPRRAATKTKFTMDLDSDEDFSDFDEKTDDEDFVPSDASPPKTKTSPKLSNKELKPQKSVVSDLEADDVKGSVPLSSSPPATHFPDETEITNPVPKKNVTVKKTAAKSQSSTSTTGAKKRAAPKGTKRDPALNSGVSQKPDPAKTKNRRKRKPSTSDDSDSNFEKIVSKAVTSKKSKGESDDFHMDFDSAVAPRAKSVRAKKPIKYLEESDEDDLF
Data set [4] deals with SCC-25. The data set is described as follows: Induction of apoptosis in human SCC-25 cells assessed as viable at 200 uM incubated for 48 hrs by Annexin V-Alexa fluor 488 and propidium iodide staining based flow cytometry relative to control. The data set is classed as functional.
The test system of data set [5] is SCC-25. The data set is described as follows: Induction of apoptosis in human SCC-25 cells assessed as necrotic cells at 200 uM incubated for 48 hrs by Annexin V-Alexa fluor 488 and propidium iodide staining based flow cytometry relative to control. The data set is classed as functional. For orientation: A flow cytometer gives signals particle by particle.
The subject of data set [6] is SCC-25. The data set is described as follows: Induction of apoptosis in human SCC-25 cells assessed as late apoptotic cells at 200 uM incubated for 48 hrs by Annexin V-Alexa fluor 488 and propidium iodide staining based flow cytometry relative to control. It is filed as functional.
Data set [7] relates to SCC-25. The data set is described as follows: Induction of apoptosis in human SCC-25 cells assessed as early apoptotic cells at 200 uM incubated for 48 hrs by Annexin V-Alexa fluor 488 and propidium iodide staining based flow cytometry relative to control. It is filed as functional.
Data set [8] addresses DNA topoisomerase 2-alpha (Homo sapiens) (UniProt P11388). As to conditions: dose 2.0 mM, time 30.0 min.
The target is the same in data set [9]. As to the kind of experiment: Inhibition of human topoisomerase II alpha using kinetoplast DNA as substrate incubated for 30 mins. As to conditions: dose 10-100 µM.
Data set [10] concerns SCC-25. As to the kind of experiment: Induction of apoptosis in human SCC-25 cells assessed as necrotic cells at 10 uM incubated for 48 hrs by Annexin V-Alexa fluor 488 and propidium iodide staining based flow cytometry relative to control. It is filed as functional.
In data set [11] the test system is SCC-25. The data set is described as follows: Induction of apoptosis in human SCC-25 cells assessed as late apoptotic cells at 10 uM incubated for 48 hrs by Annexin V-Alexa fluor 488 and propidium iodide staining based flow cytometry relative to control. It is filed as functional.
In data set [12] the test system is SCC-25. The data set is described as follows: Induction of apoptosis in human SCC-25 cells assessed as early apoptotic cells at 10 uM incubated for 48 hrs by Annexin V-Alexa fluor 488 and propidium iodide staining based flow cytometry relative to control. It is filed as functional.
Data set [13] concerns SCC-25. As to the kind of experiment: Induction of apoptosis in human SCC-25 cells assessed as viable at 10 uM incubated for 48 hrs by Annexin V-Alexa fluor 488 and propidium iodide staining based flow cytometry relative to control. It is filed as functional.
The subject of data set [14] is SCC-25. The data set is described as follows: Induction of apoptosis in human SCC-25 cells assessed as necrotic cells at 1 uM incubated for 48 hrs by Annexin V-Alexa fluor 488 and propidium iodide staining based flow cytometry relative to control. The data set is classed as functional.
Data set [15] relates to SCC-25. The data set is described as follows: Induction of apoptosis in human SCC-25 cells assessed as late apoptotic cells at 1 uM incubated for 48 hrs by Annexin V-Alexa fluor 488 and propidium iodide staining based flow cytometry relative to control. It is filed as functional.
For data set [16], the system named is SCC-25. The data set is described as follows: Induction of apoptosis in human SCC-25 cells assessed as early apoptotic cells at 1 uM incubated for 48 hrs by Annexin V-Alexa fluor 488 and propidium iodide staining based flow cytometry relative to control. It is filed as functional.
In data set [17] the test system is SCC-25. The data set is described as follows: Induction of apoptosis in human SCC-25 cells assessed as viable at 1 uM incubated for 48 hrs by Annexin V-Alexa fluor 488 and propidium iodide staining based flow cytometry relative to control. The data set is classed as functional.
Data set [18] has as its system SCC-25. The data set is described as follows: Induction of apoptosis in human SCC-25 cells assessed as necrotic cells at 0.1 uM incubated for 48 hrs by Annexin V-Alexa fluor 488 and propidium iodide staining based flow cytometry relative to control. It is filed as functional.
Data set [19] relates to SCC-25. As to the kind of experiment: Induction of apoptosis in human SCC-25 cells assessed as late apoptotic cells at 0.1 uM incubated for 48 hrs by Annexin V-Alexa fluor 488 and propidium iodide staining based flow cytometry relative to control. The data set is classed as functional.
Data set [20] relates to SCC-25. The data set is described as follows: Induction of apoptosis in human SCC-25 cells assessed as early apoptotic cells at 0.1 uM incubated for 48 hrs by Annexin V-Alexa fluor 488 and propidium iodide staining based flow cytometry relative to control. It is filed as functional.
Data set [21] relates to SCC-25. The data set is described as follows: Induction of apoptosis in human SCC-25 cells assessed as viable at 0.1 uM incubated for 48 hrs by Annexin V-Alexa fluor 488 and propidium iodide staining based flow cytometry relative to control. The data set is classed as functional.

Calls of active or inactive are those of the source. The calls are words filed in the database; no cut-off is given here.

With `COc1cc2c(c3c1c(=O)c1ccccc1n3CCCCC(=O)NO)C=CC(C)(C)O2`, the IC50 in the data set on MCF7 is more than 100 µM; in the data set on Calu-3 it was 29.5 µM; with SCC-25 [1] it was more than 100 µM; in data set [2], “Not_determined”.

For the compound `Cn1c2ccccc2c(=O)c2c(OCc3cccc(C(=O)NO)c3)cc3c(c21)C=CC(C)(C)O3`, the IC50 in the data set with MCF7 worked out at 6.62 µM; in the data set on Calu-3, 6.53 µM; in the data set with SCC-25 [1], 23.1 µM. Besides, in [2], the IC50 at 96 h is more than 100 µM. Also, the inhibition entry in data set [3] is “Active”.

Regarding `COc1cc2c(c3c1c(=O)c1ccccc1n3CC(=O)NO)C=CC(C)(C)O2`, the IC50 was more than 100 µM in the data set on MCF7, 61.8 µM in the data set on Calu-3, 41.5 µM in the data set on SCC-25 [1] and “Not_determined” in [2].

For `COc1cc([C@@H]2c3cc4c(cc3[C@@H](O[C@@H]3O[C@@H]5CO[C@@H](C)O[C@H]5[C@H](O)[C@H]3O)[C@H]3COC(=O)[C@H]23)OCO4)cc(OC)c1O` [ETOPOSIDE], the 50% inhibitory concentration (IC50) in the data set with MCF7 is 55.6 µM; with Calu-3, 0.6 µM; with SCC-25 [1], 3.4 µM; in data set [2], “Not_determined”. Also, the Activity is recorded as 65.5% with SCC-25 [4], 13.3% with SCC-25 [5], 17.2% in the data set with SCC-25 [6] and 2.76% with SCC-25 [7]. Besides, the inhibition result in data set [8] is “Active”.

On to `Cn1c2ccccc2c(=O)c2c(O)cc3c(c21)C=CC(C)(C)O3` [NORACRONYCINE], for which the IC50 in the data set with MCF7 is 187 µM; with Calu-3, 97.5 µM; in the data set on SCC-25 [1], 14.1 µM; in data set [2], “Not_determined”.

With `COc1cc2c(c3c1c(=O)c1ccccc1n3Cc1ccc(C(=O)NO)cc1)C=CC(C)(C)O2`, the IC50 with MCF7 came out at 19.7 µM; with Calu-3, 14.2 µM; in the data set on SCC-25 [1] it was 7.7 µM. The IC50 at 96 h in [2] came out at 82.5 µM. Further, the inhibition result in data set [9] is “Dose-dependent-effect”.

As to `Cn1c2ccccc2c(=O)c2c(OCCCCCCC(=O)NO)cc3c(c21)C=CC(C)(C)O3`, the IC50 in the data set on MCF7 is 5.7 µM; with Calu-3 it was 10.6 µM; in the data set with SCC-25 [1], 0.7 µM. In addition, the IC50 at 96 h in [2] was more than 100 µM. Moreover, the inhibition result in data set [9] was “Dose-dependent-effect”.

In the case of `COc1cc2c(c3c1c(=O)c1ccccc1n3CCCCCCC(=O)NO)C=CC(C)(C)O2`, the IC50 in the data set on MCF7 was 6.12 µM; with Calu-3, 4.37 µM; with SCC-25 [1], 1.11 µM. Besides, the 50% inhibitory concentration (IC50) at 96 h in data set [2] was found to be 60.2 µM. Further, the inhibition entry in data set [9] is “Dose-dependent-effect”.

`COc1cc2c(c3c1c(=O)c1ccccc1n3Cc1cccc(C(=O)NO)c1)C=CC(C)(C)O2`: the IC50 in the data set with MCF7 is 80.1 µM; with Calu-3, 42 µM; in the data set with SCC-25 [1] it was 39.3 µM; in data set [2] it was “Not_determined”.

For `Cn1c2ccccc2c(=O)c2c(OCCCCCC(=O)NO)cc3c(c21)C=CC(C)(C)O3`, the IC50 with MCF7 stood at 8.3 µM; in the data set with Calu-3 it was 16.1 µM; in the data set with SCC-25 [1] it was 9.7 µM. The half-inhibitory concentration (IC50) at 96 h in data set [2] came to 24.5 µM. Besides, in [9], the inhibition result is “Dose-dependent-effect”.

As for `COc1cc2c(c3[nH]c4ccccc4c(=O)c13)C=CC(C)(C)O2`, the IC50 is 191 µM with MCF7, 13.9 µM in the data set on Calu-3, 21.2 µM in the data set with SCC-25 [1] and “Not_determined” in [2].

Regarding `COc1cc2c(c3c1c(=O)c1ccccc1n3CCCC(=O)NO)C=CC(C)(C)O2`, the IC50 is more than 100 µM in the data set with MCF7, 36.8 µM in the data set with Calu-3, 36 µM in the data set with SCC-25 [1] and “Not_determined” in data set [2].

`Cn1c2ccccc2c(=O)c2c(OCc3ccc(C(=O)NO)cc3)cc3c(c21)C=CC(C)(C)O3`: the IC50 in the data set with MCF7 was determined as 4.71 µM; in the data set with Calu-3, 1.81 µM; with SCC-25 [1], 1.66 µM. The IC50 at 96 h in data set [2] is more than 100 µM.

Take `Cn1c2ccccc2c(=O)c2c(OCCCC(=O)NO)cc3c(c21)C=CC(C)(C)O3`: the values for the IC50 with MCF7, in the data set with Calu-3 and with SCC-25 [1] were 2.8 µM, 3.2 µM and 2.2 µM, respectively. For the same compound, the IC50 at 96 h in [2] was 27 µM. Further, the inhibition result in data set [9] is “Dose-dependent-effect”.

With `Cn1c2ccccc2c(=O)c2c(OCC(=O)NO)cc3c(c21)C=CC(C)(C)O3`, the values for the IC50 in the data set with MCF7, in the data set on Calu-3 and in the data set on SCC-25 [1] were 10.9 µM, 4 µM and 1.2 µM, respectively. Moreover, in data set [2], the IC50 at 96 h was more than 100 µM. Also, in data set [9], the inhibition entry is “Dose-dependent-effect”.

On to `Cn1c2ccccc2c(=O)c2c(OCCCCC(=O)NO)cc3c(c21)C=CC(C)(C)O3`, for which the IC50 came out at 1.03 µM with MCF7, 1.51 µM in the data set with Calu-3 and 0.35 µM in the data set on SCC-25 [1]. Moreover, the IC50 at 96 h in data set [2] is more than 100 µM. Besides, the Activity in the data set with SCC-25 [10] came out at 33.1%; in the data set with SCC-25 [11], 53.1%; in the data set on SCC-25 [12], 0.15%; with SCC-25 [13], 13.7%; in the data set with SCC-25 [14], 7.49%; in the data set on SCC-25 [15], 4.35%. Moreover, the Activity was 1.13% in the data set with SCC-25 [16]; 87% in the data set on SCC-25 [17]; 1.96% in the data set with SCC-25 [18]; 1.35% with SCC-25 [19]; 0.63% in the data set with SCC-25 [20]; 96.1% in the data set on SCC-25 [21]. The inhibition result in data set [9] is “Dose-dependent-effect”.

Regarding `COc1cc2c(c3c1c(=O)c1ccccc1n3CCCCCC(=O)NO)C=CC(C)(C)O2`, the figures for the IC50 in the data set on MCF7, in the data set on Calu-3 and in the data set on SCC-25 [1] were 40.8 µM, 18 µM and 14.8 µM, respectively. Also, in data set [2], the IC50 at 96 h was more than 100 µM.

Usually IC50 stands for the concentration that inhibits the measured activity by half.

Source of the values: ChEMBL document CHEMBL6153046, “Semisynthesis of Glycosmis pentaphylla Alkaloid Derivatives: Pyranoacridone-Hydroxamic Acid Cytotoxic Conjugates with HDAC and Topoisomerase II α Dual Inhibitory Activity” (J Nat Prod, 2025).
